The nature of this data set: stability of budesonide dissolved in water/ethanol at low pH. Type of data set: physicochemical. The following applies: pH of 3.5; dissolved in a mixture of water and ethanol. How it is done:
In the case of steroids, these are preferably used in suspended form, especially fluticasone. This is particularly true if the solvent used is only water without ethanol. If ethanol is added, the steroid may also be formulated as a solution.

Consider `CCCC1O[C@@H]2C[C@H]3[C@@H]4CCC5=CC(=O)C=C[C@]5(C)[C@H]4[C@@H](O)C[C@]3(C)[C@]2(C(=O)CO)O1` (stereo partly shown) [budesonide], for which the stability in solution result is on record as “sufficiently stable”.

(Values after US6890517B2, “Inhalable formulation of a solution containing a tiotropium salt” (Boehringer Ingelheim Pharma KG, priority 2000, dated 2005).)
